Data published in the NIST ThermoML archive (doi:10.1021/acs.jced.5b00488).
Numbers after ± are expanded uncertainties.

Conditions: Crystal; visual observation

Molecule `CC(COCc1ccc(O)c2ncccc12)(COCc1ccc(O)c2ncccc12)COCc1ccc(O)c2ncccc12` has a Triple point temperature of 468.15 ± 4 K.
